Source: ChEMBL document CHEMBL1125858, “Synthesis and biological activity of MK 287 (L-680,573): a potent, specific and orally active paf receptor antagonist” (Bioorg Med Chem Lett, 1991)
Activity calls are given as the source filed them. No cut-off for these calls is given here.

Tests used:
[1] = molecular target: Beta-1 adrenergic receptor (Cavia porcellus) (UniProt B0FL73); assay: Compound was tested for it's binding affinity towards guinea pig heart Beta-1 adrenergic receptor at a concentration of 10 uM; NA means no affinity.
Beta-1 adrenergic receptor (Cavia porcellus), sequence (B0FL73 1-467): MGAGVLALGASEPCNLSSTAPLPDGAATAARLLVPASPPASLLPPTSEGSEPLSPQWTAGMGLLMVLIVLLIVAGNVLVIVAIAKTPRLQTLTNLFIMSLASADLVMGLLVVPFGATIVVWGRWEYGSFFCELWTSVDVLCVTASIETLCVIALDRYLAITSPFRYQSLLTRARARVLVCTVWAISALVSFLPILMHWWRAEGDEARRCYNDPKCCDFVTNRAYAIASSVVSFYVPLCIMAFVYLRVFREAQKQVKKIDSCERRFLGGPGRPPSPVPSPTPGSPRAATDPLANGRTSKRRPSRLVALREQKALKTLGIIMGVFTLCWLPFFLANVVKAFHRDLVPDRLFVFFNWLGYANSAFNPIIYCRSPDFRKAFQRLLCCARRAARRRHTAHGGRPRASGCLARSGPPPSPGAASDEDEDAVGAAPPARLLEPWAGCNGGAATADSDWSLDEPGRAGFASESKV

[2] = molecular target: Beta-2 adrenergic receptor (Cavia porcellus) (UniProt Q8K4Z4); assay: Compound was tested for it's binding affinity towards guinea pig lung Beta-2 adrenergic receptor at a concentration of 10 uM; NA means no affinity.
Beta-2 adrenergic receptor (Cavia porcellus), sequence (Q8K4Z4 whole entry, looked up): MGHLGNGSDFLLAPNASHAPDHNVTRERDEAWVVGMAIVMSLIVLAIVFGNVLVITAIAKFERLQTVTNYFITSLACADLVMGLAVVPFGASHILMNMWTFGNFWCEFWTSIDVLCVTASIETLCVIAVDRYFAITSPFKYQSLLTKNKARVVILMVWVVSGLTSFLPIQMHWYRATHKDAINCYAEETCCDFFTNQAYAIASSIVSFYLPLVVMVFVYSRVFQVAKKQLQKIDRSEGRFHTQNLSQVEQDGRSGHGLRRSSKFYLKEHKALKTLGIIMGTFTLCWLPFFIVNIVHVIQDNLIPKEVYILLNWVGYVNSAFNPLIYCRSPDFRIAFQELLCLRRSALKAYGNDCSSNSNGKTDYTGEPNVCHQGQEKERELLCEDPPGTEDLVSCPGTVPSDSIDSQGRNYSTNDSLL

[3] = tested on: Cavia porcellus; assay: Compound was tested for it's ability to inhibit PAF-induced bronchoconstriction in female guinea pigs after intravenous dosing; format: functional
[4] = tested on: Cavia porcellus; assay: Compound was tested for it's ability to inhibit PAF-induced bronchoconstriction in male guinea pigs after intravenous dosing; format: functional
[5] = tested on: Rattus norvegicus; assay: In vivo efficacy for inhibition of PAF-induced (10 nM/kg) extravasation in male and female rats in a dose-dependent manner; format: functional
[6] = tested on: Rattus norvegicus; assay: In vivo efficacy for increased plasma N-acetyl-beta-D-glucosaminidase (NAGA) activity in male and female rats in a dose-dependent manner; format: functional
[7] = molecular target: T1, Alpha-1A adrenergic receptor (Bos taurus) (UniProt P18130); assay: Compound was tested for it's binding affinity towards calf brain alpha 1 receptor at a concentration of 10 uM; NA means no affinity.
T1 sequence (whole entry): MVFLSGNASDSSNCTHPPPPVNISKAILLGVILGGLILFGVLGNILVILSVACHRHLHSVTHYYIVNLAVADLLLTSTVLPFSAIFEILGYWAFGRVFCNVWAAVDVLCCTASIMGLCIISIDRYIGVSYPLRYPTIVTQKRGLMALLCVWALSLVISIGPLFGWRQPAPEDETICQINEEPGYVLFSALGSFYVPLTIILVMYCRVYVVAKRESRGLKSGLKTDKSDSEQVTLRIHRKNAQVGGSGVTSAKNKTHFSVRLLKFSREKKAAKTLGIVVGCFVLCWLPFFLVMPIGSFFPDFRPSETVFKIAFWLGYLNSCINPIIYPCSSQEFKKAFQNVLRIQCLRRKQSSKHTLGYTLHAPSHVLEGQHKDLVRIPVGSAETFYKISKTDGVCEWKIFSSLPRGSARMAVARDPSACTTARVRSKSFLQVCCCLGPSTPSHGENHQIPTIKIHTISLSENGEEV

[8] = molecular target: T2, Alpha-2A adrenergic receptor (Bos taurus) (UniProt Q28838); assay: Compound was tested for it's binding affinity towards calf brain alpha 2 receptor at a concentration of 10 uM; NA means no affinity.
T2 sequence (whole entry): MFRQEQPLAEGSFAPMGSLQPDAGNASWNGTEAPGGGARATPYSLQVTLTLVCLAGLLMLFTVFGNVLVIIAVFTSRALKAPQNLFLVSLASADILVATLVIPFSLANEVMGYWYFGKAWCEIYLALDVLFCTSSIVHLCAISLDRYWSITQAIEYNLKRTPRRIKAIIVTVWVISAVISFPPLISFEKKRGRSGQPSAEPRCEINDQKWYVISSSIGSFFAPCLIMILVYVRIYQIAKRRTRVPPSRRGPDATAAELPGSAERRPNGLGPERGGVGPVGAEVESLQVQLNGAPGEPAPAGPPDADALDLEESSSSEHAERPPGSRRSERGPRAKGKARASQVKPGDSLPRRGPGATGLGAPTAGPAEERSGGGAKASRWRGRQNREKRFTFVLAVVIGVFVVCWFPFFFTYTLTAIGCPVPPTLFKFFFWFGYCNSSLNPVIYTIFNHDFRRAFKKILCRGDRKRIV

[9] = species on record: Homo sapiens; assay: Compound was tested for human platelet aggregation induced by ADP at concentrations from 1 to 10 uM; NE means no effect; format: functional, organism-based
[10] = species on record: Homo sapiens; assay: Compound was tested for human platelet aggregation induced by thromboxane A2 agonist U-44,069 at concentrations from 1 to 10 uM; NE means no effect; format: functional, organism-based
[11] = species on record: Homo sapiens; assay: Compound was tested for human platelet aggregation induced by vasopressin at concentrations from 1 to 10 uM; NE means no effect; format: functional, organism-based
[12] = species on record: Homo sapiens; assay: Compound was tested for PAF-induced human platelet aggregation in plasma-rich platelets.; format: functional, organism-based
[13] = species on record: Homo sapiens; assay: Compound was tested for PAF-induced human platelet aggregation in washed platelets.; format: functional, organism-based
[14] = species on record: Homo sapiens; assay: The compound was tested for PAF-induced degranulation in preincubated isolated human neutrophils; format: functional
[15] = molecular target: C5a anaphylatoxin chemotactic receptor 1 (Homo sapiens) (UniProt P21730); conditions: 1 to 10 uM
C5a anaphylatoxin chemotactic receptor 1 (Homo sapiens), sequence (P21730 whole entry, looked up): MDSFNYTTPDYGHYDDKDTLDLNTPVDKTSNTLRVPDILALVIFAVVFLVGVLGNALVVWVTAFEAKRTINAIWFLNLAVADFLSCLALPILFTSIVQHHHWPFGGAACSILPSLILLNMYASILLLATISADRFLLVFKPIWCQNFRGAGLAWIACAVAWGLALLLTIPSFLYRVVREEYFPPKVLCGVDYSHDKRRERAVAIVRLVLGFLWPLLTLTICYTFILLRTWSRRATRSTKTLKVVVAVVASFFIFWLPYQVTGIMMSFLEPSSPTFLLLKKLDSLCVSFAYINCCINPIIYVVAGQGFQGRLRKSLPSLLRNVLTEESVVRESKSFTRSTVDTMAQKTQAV
Description: Compound was tested for it''s ability to inhibit binding of [125I]C5a radioligand to its receptor at a concentration of 1 to 10 uM; NS means no significant inhibition

[16] = molecular target: Leukotriene B4 receptor 1 (Homo sapiens) (UniProt Q15722); conditions: 1 to 10 uM
Leukotriene B4 receptor 1 (Homo sapiens), sequence (Q15722 whole entry, looked up): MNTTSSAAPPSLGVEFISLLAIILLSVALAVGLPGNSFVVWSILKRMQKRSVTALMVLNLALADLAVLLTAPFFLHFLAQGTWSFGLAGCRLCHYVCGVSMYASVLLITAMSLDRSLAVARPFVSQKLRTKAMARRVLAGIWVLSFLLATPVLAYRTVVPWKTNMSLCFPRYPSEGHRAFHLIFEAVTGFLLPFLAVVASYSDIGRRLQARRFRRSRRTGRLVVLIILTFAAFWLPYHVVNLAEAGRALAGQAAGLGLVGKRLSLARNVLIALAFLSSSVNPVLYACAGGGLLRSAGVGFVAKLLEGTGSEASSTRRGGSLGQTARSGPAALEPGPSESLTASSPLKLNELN

[17] = Half-life in rhesus monkeys by intravenous administration of dose; format: ADME, organism-based; conditions: cercopithecidae, in vivo

With `CCCOc1c(OC)cc([C@@H]2CC[C@@H](c3cc(OC)c(OC)c(OC)c3)O2)cc1S(=O)(=O)CCO` the Affinity [1] was “inactive”, the Affinity [2] was “inactive” and the ED50 [3] was 0.1 mg/kg. It also gave an ED50 [4] of 0.19 mg/kg, an ED50 [5] of 2.3 mg/kg and an ED50 [6] of 0.1 mg/kg. The Affinity [7] was “inactive”, the Affinity [8] was “inactive” and the Activity [9] was “inactive”. For the same compound, the Activity [10] was “inactive”, the Activity [11] was “inactive” and the IC50 [12] was 56 nM. For the same compound, the IC50 [13] was 1.5 nM, the IC50 [14] was 4 nM and the inhibition [15] was “inactive”. For the same compound, the inhibition [16] was “inactive”.
Compound `COc1cc([C@H]2CC[C@H](c3cc(OC)c(OC)c(OC)c3)O2)cc(OC)c1OC` has a half-life [17] of 14 min.
